Experimental data: PubChem BioAssay (NCI)
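A five-concentration, 48-hour dose response in 96-well plates underlies each endpoint, interpolated linearly between surrounding concentrations. GI50: concentration for 50% inhibition of growth. TGI denotes the concentration required for complete inhibition of growth.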

Tests used:
Assay in all cases: NCI anticancer screen, dose series, 48 h; in the data active means GI50 below about 0.43 µM; inactive means the rest
[1] = test system: UO-31 renal
[2] = test system: NCI-H460 lung
[3] = test system: DU-145 prostate
[4] = test system: MOLT-4 leukemia
[5] = test system: CCRF-CEM leukemia
[6] = test system: HCT-15 colon
[7] = test system: EKVX NSCLC
[8] = test system: SK-MEL-5 melanoma
[9] = test system: HCC-2998 colon
[10] = test system: OVCAR-3 ovarian
[11] = test system: SNB-75 CNS
[12] = test system: UACC-62 melanoma
[13] = test system: LOX IMVI melanoma
[14] = test system: HCT-116 colon
[15] = test system: SK-MEL-2 melanoma
[16] = test system: NCI-H226 lung
[17] = test system: NCI-H522 lung
[18] = test system: K-562 leukemia
[19] = test system: MCF7 breast
[20] = test system: A498 renal
[21] = test system: HL-60(TB) leukemia
[22] = test system: SK-OV-3 ovarian
[23] = test system: NCI-H23 lung
[24] = test system: 786-0 renal
[25] = test system: KM12 colon
[26] = test system: RXF 393 renal
[27] = test system: NCI/ADR-RES ovarian
[28] = test system: RPMI-8226 leukemia
[29] = test system: SK-MEL-28 melanoma
[30] = test system: SN12C renal
[31] = test system: MDA-MB-435
[32] = test system: BT-549 breast
[33] = test system: CAKI-1 renal
[34] = test system: OVCAR-5 ovarian
[35] = test system: ACHN renal
[36] = test system: MDA-MB-231 breast
[37] = test system: TK-10 renal
[38] = test system: HOP-62 NSCLC
[39] = test system: SNB-19 CNS
[40] = test system: SW-620 colon
[41] = test system: HS 578T breast
[42] = test system: IGROV1 ovarian
[43] = test system: SF-295 CNS
[44] = test system: SF-268 CNS
[45] = test system: OVCAR-4 ovarian
[46] = test system: A549 NSCLC
[47] = test system: M14 melanoma
[48] = test system: UACC-257 melanoma
[49] = test system: OVCAR-8 ovarian
[50] = test system: SF-539 CNS
[51] = test system: HOP-92 NSCLC
[52] = test system: PC-3 prostate
[53] = test system: U251 CNS
[54] = test system: MALME-3M melanoma
[55] = test system: HT29 colon
[56] = test system: SR leukemia
[57] = test system: T-47D breast
[58] = test system: COLO 205 colon

Cc1ccc(-c2nc(N)nc3c2nnn3Cc2cccc(CO[C@H]3CCOC3)n2)o1
> 100 µM: TGI [1] | TGI [2] | TGI [3] | TGI [4] | TGI [5] | TGI [6] | TGI [7] | TGI [8] | TGI [9] | TGI [10] | TGI [11] | TGI [12] | TGI [13] | TGI [14] | TGI [15] | TGI [16] | TGI [17] | TGI [18] | TGI [19] | TGI [20] | TGI [21] | TGI [22] | TGI [23] | TGI [24] | TGI [25] | TGI [26] | TGI [27] | TGI [28] | TGI [29] | TGI [30] | TGI [31] | TGI [32] | TGI [33] | TGI [34] | TGI [35] | TGI [36] | TGI [37] | TGI [38] | TGI [39] | TGI [40] | TGI [41] | TGI [42] | TGI [43] | TGI [44] | TGI [45] | TGI [46] | TGI [47] | TGI [48] | TGI [49] | TGI [50] | TGI [51] | TGI [52] | TGI [53] | TGI [54] | TGI [55]
inactive: GI50 [1] > 100 µM | GI50 [2] > 100 µM | GI50 [3] > 100 µM | GI50 [4] 98.4 µM | GI50 [5] > 100 µM | GI50 [6] > 100 µM | GI50 [7] > 100 µM | GI50 [8] 53.6 µM | GI50 [9] > 100 µM | GI50 [10] > 100 µM | GI50 [11] 41.5 µM | GI50 [12] > 100 µM | GI50 [13] > 100 µM | GI50 [14] > 100 µM | GI50 [15] > 100 µM | GI50 [16] > 100 µM | GI50 [17] > 100 µM | GI50 [18] > 100 µM | GI50 [19] > 100 µM | GI50 [20] 69.9 µM | GI50 [21] > 100 µM | GI50 [22] > 100 µM | GI50 [23] > 100 µM | GI50 [24] > 100 µM | GI50 [25] > 100 µM | GI50 [26] > 100 µM | GI50 [27] > 100 µM | GI50 [28] > 100 µM | GI50 [29] > 100 µM | GI50 [30] > 100 µM | GI50 [31] > 100 µM | GI50 [32] 82 µM | GI50 [33] > 100 µM | GI50 [34] > 100 µM | GI50 [35] > 100 µM | GI50 [36] > 100 µM | GI50 [37] > 100 µM | GI50 [38] > 100 µM | GI50 [39] > 100 µM | GI50 [40] > 100 µM | GI50 [41] > 100 µM | GI50 [42] > 100 µM | GI50 [43] > 100 µM | GI50 [44] > 100 µM | GI50 [45] 66.5 µM | GI50 [46] > 100 µM | GI50 [47] > 100 µM | GI50 [48] > 100 µM | GI50 [49] > 100 µM | GI50 [50] > 100 µM | GI50 [51] > 100 µM | GI50 [52] > 100 µM | GI50 [53] > 100 µM | GI50 [54] > 100 µM | GI50 [55] > 100 µM

O=[N+]([O-])c1ccc(Nc2nc3ccccc3s2)cc1
38.9 µM: TGI [13]
84 µM: TGI [9]
40.2 µM: TGI [36]
81.4 µM: TGI [32]
35.1 µM: TGI [52]
57.7 µM: TGI [10]
39.3 µM: TGI [53]
28.9 µM: TGI [26]
58.7 µM: TGI [12]
40.4 µM: TGI [7]
81 µM: TGI [15]
30.3 µM: TGI [4]
14 µM: TGI [57]
> 100 µM: TGI [2] | TGI [3] | TGI [6] | TGI [16] | TGI [25] | TGI [27] | TGI [29] | TGI [31] | TGI [33] | TGI [35] | TGI [38] | TGI [39] | TGI [40] | TGI [41] | TGI [43] | TGI [45] | TGI [46] | TGI [47] | TGI [49] | TGI [55]
35 µM: TGI [18]
92 µM: TGI [20]
35.9 µM: TGI [17]
46.1 µM: TGI [54]
84.6 µM: TGI [34]
91.7 µM: TGI [44]
66.5 µM: TGI [1]
34.5 µM: TGI [56] | TGI [23]
21.2 µM: TGI [42]
56.7 µM: TGI [8]
60.9 µM: TGI [51]
88 µM: TGI [37]
75.6 µM: TGI [48]

Cc1cc(N2CCCC2)nc(NC2CCCC(Nc3ccnc4cc(Cl)ccc34)C2)n1 (configuration not stated)
4.14 µM: TGI [23]
2.77 µM: TGI [3]
2.95 µM: TGI [38]
3.37 µM: TGI [5]
4.26 µM: TGI [34]
4.83 µM: TGI [57]
3.11 µM: TGI [31]
2.79 µM: TGI [35]
3.27 µM: TGI [15]
5.27 µM: TGI [45]
1.4 µM: TGI [28]
2.62 µM: TGI [50]
4.39 µM: TGI [49]
4.21 µM: TGI [10]
3.89 µM: TGI [25]
inactive: GI50 [1] 1.05 µM | GI50 [3] 1.24 µM | GI50 [4] 0.478 µM | GI50 [6] 1.02 µM | GI50 [7] 1.86 µM | GI50 [8] 1.69 µM | GI50 [9] 1.12 µM | GI50 [10] 1.67 µM | GI50 [12] 1.92 µM | GI50 [13] 0.681 µM | GI50 [14] 0.442 µM | GI50 [15] 1.7 µM | GI50 [16] 1.91 µM | GI50 [17] 1.58 µM | GI50 [19] 0.563 µM | GI50 [20] 1.91 µM | GI50 [22] 1.86 µM | GI50 [23] 1.59 µM | GI50 [24] 1.45 µM | GI50 [25] 1.5 µM | GI50 [26] 1.33 µM | GI50 [27] 1.78 µM | GI50 [29] 1.77 µM | GI50 [57] 1.71 µM | GI50 [31] 1.56 µM | GI50 [32] 1.8 µM | GI50 [34] 1.45 µM | GI50 [35] 1.27 µM | GI50 [37] 2.55 µM | GI50 [58] 1.46 µM | GI50 [38] 1.32 µM | GI50 [39] 1.46 µM | GI50 [40] 1.27 µM | GI50 [41] 2 µM | GI50 [42] 0.967 µM | GI50 [43] 1.47 µM | GI50 [44] 1.19 µM | GI50 [45] 1.52 µM | GI50 [47] 1.14 µM | GI50 [48] 1.99 µM | GI50 [49] 1.92 µM | GI50 [50] 1.26 µM | GI50 [53] 1.48 µM
2.86 µM: TGI [53]
2.29 µM: TGI [1]
4.72 µM: TGI [41]
2.44 µM: TGI [6]
5.69 µM: TGI [27]
3.46 µM: TGI [44]
2.87 µM: TGI [24]
3.48 µM: TGI [20]
2.1 µM: TGI [13]
3.76 µM: TGI [48]
3.49 µM: TGI [22]
2.63 µM: TGI [19]
3.44 µM: TGI [39]
5.02 µM: TGI [7]
2.68 µM: TGI [9]
3.92 µM: TGI [16]
3.35 µM: TGI [32] | TGI [58]
2.89 µM: TGI [43]
3.13 µM: TGI [4]
3.25 µM: TGI [40]
3.2 µM: TGI [42]
2.51 µM: TGI [47]
3.43 µM: TGI [29]
3.57 µM: TGI [12]
4.56 µM: TGI [37]
3.09 µM: TGI [8]
active: GI50 [5] 0.408 µM | GI50 [28] 0.322 µM
1.68 µM: TGI [14]
2.71 µM: TGI [26]
3.21 µM: TGI [17]
